# Results reported in publication PMC10674160, “Synthesis and Preclinical Evaluation of Radiolabeled [^103Ru]BOLD-100” (Pharmaceutics, 2023).
# Experiment: Tissue distribution in CT26 allograft bearing Balb/c mice (ICP-MS for 3a, gamma counting for 3b)
# Assay type: in vivo
# Conditions: 30 mg/kg i.v.
# Procedure: UV/Vis spectra were recorded on a Hitachi U-2000 Dual Beam spectrophotometer. Sample activities were measured on an ISOMED 2010 dose calibrator. For centrifugation during synthesis, a Fisherbrand^TM Mini-Centrifuge from Fisher Scientific was used. Radioactive organ samples were measured on Perkin Elmer Wizard^2 gamma counter. Non-radioactive organ samples were prepared, and the ruthenium content was quantified with ICP-MS. The exact procedure including instrument information can be found in the Supplementary Materials.
# For the evaluation of organ distribution, CT26 cells (5 × 10^5 in serum-free medium) were injected subcutaneously into the right flank of Balb/c mice. Animals were controlled for distress development every day and tumor size was assessed regularly using caliper measurements. CT26 cells were inoculated 10 days prior to drug application. Tumor volume was calculated using the formula: (length × width^2); the tumors reached a size of about 500 mm^3. Animals were treated once intravenously (i.v.) via tail-vein injection with 3a or 3b at a dose of 30 mg/kg (dissolved in 0.9% NaCl, 0.6 mg/100 µL/20 g mouse) and a specific activity of 0.64–1.36 MBq/mg for compound 3b. The mice were anesthetized and sacrificed by cervical fracture 4, 24, 48 and 72 h p.i., with n ≥ 2 (3a) and n ≥ 3 (3b) for each time point. Samples of tumor, liver, kidney, muscle, heart, lung, spleen, pancreas, stomach, colon, small intestine, brain, bone, and blood were collected from each mouse. After clotting at RT, serum was isolated from the collected blood samples by centrifugation at 3000 rpm for 10 min twice and stored together with the collected tissue samples at −20 °C. Finally, the ruthenium content was quantified by ICP-MS in the case of the non-radioactive BOLD-100 (3a) and via gamma counting for [^103Ru]BOLD-100 (3b).
# An Agilent 7800 ICP-MS (Agilent Technologies, Tokyo, Japan) was being employed, which was equipped with an Agilent SPS 4 autosampler (Agilent Technologies, Tokyo, Japan) and a MicroMist nebulizer at a sample uptake rate of approx. 0.2 mL/min. The Agilent MassHunter software package (Workstation Software, Version C.01.04, 2018) was used for data evaluation. The instrumental parameters […]
# Reference source not found..
# Ta ble S1: Instrumental parameters for the ICP-MS measurements […]
# Spray chamber Scott double-pass
# Spraying chamber temp. 2°C
# Nebulizer gas 1.06 L min−1
# Auxiliary gas 0.90 L min−1
# The instrumental limit of quantification (LOQ) was determined at the start of the measurement by […]
# LOQ = blank average + 10*STD
# Blank corrections were performed for all the samples. Robustness was ensured by tuning the ICP-MS on a daily basis, by using an internal standard (115In) and measuring calibration standards for each […]
# Ultrapure water (18.2 MΩ cm, ELGA Water purification system, Purelab Ultra MK 2, UK or 18.2 MΩ cm, Milli-Q Advantage, Darmstadt, Germany), HNO3 (≥69%, Rotipuran Supra, Carl Roth, Karlsruhe, Germany) and H2O2 (30%, Suprapur, Merck, Darmstadt, Germany) were used for all dilutions for ICP-MS measurements. The Ru standard solution was purchased from Labkings (Hilversum, The Netherlands).
# For the digestion, approx. 25–50 mg of each organ sample were weighed into PFA-tubes, with 2 mL HNO3 and 100 µL H2O2 being added. The solutions were then placed on a hot plate and heated up for 6 hours using a temperature program with a maximum temperature of 200 °C. After cooling down, the liquids were transferred directly to 15 mL tubes with the remaining solution being removed from the PFA tubes by washing twice with 4 mL ultrapure water, resulting in a final volume of about 10 mL. By writing down the total weight of the resulting liquid, the dilution factor could be calculated.
structure (smiles),measurement,setting,value
"[Cl][Ru-]([Cl])([Cl])[Cl].[Na+].c1ccc2[nH]ncc2c1.c1ccc2[nH]ncc2c1 [3a, sodium trans-[tetrachloridobis(indazole)ruthenate(III)]]",%ID/g tissue Blood cells,4 h p.i.,10.70 ± 4.38 %ID/g tissue
same,%ID/g tissue Blood cells,24 h p.i.,3.43 ± 0.83 %ID/g tissue
same,%ID/g tissue Blood cells,48 h p.i.,1.96 ± 1.09 %ID/g tissue
same,%ID/g tissue Blood cells,72 h p.i.,0.67 ± 0.86 %ID/g tissue
same,%ID/g tissue Bones,4 h p.i.,1.08 ± 0.25 %ID/g tissue
same,%ID/g tissue Bones,24 h p.i.,0.79 ± 0.20 %ID/g tissue
same,%ID/g tissue Bones,48 h p.i.,0.88 ± 0.16 %ID/g tissue
same,%ID/g tissue Bones,72 h p.i.,1.12 ± 0.35 %ID/g tissue
same,%ID/g tissue Brain,4 h p.i.,0.36 ± 0.19 %ID/g tissue
same,%ID/g tissue Brain,24 h p.i.,0.15 ± 0.07 %ID/g tissue
same,%ID/g tissue Brain,48 h p.i.,0.10 ± 0.02 %ID/g tissue
same,%ID/g tissue Brain,72 h p.i.,0.11 ± 0.00 %ID/g tissue
same,%ID/g tissue Colon,4 h p.i.,3.53 ± 1.27 %ID/g tissue
same,%ID/g tissue Colon,24 h p.i.,2.58 ± 0.13 %ID/g tissue
same,%ID/g tissue Colon,48 h p.i.,1.68 ± 0.58 %ID/g tissue
same,%ID/g tissue Colon,72 h p.i.,1.63 ± 0.00 %ID/g tissue
same,%ID/g tissue Heart,4 h p.i.,5.81 ± 0.94 %ID/g tissue
same,%ID/g tissue Heart,24 h p.i.,3.66 ± 1.31 %ID/g tissue
same,%ID/g tissue Heart,48 h p.i.,3.28 ± 0.63 %ID/g tissue
same,%ID/g tissue Heart,72 h p.i.,2.37 ± 1.97 %ID/g tissue
same,%ID/g tissue Kidneys,4 h p.i.,11.58 ± 1.35 %ID/g tissue
same,%ID/g tissue Kidneys,24 h p.i.,10.02 ± 1.09 %ID/g tissue
same,%ID/g tissue Kidneys,48 h p.i.,7.34 ± 4.13 %ID/g tissue
same,%ID/g tissue Kidneys,72 h p.i.,6.78 ± 0.18 %ID/g tissue
same,%ID/g tissue Liver,4 h p.i.,12.90 ± 1.14 %ID/g tissue
same,%ID/g tissue Liver,24 h p.i.,9.84 ± 0.60 %ID/g tissue
same,%ID/g tissue Liver,48 h p.i.,8.96 ± 3.11 %ID/g tissue
same,%ID/g tissue Liver,72 h p.i.,7.90 ± 0.35 %ID/g tissue
same,%ID/g tissue Lung,4 h p.i.,8.24 ± 2.06 %ID/g tissue
same,%ID/g tissue Lung,24 h p.i.,4.84 ± 0.53 %ID/g tissue
same,%ID/g tissue Lung,48 h p.i.,4.64 ± 0.94 %ID/g tissue
same,%ID/g tissue Lung,72 h p.i.,4.41 ± 1.94 %ID/g tissue
same,%ID/g tissue Muscle,4 h p.i.,0.82 ± 0.18 %ID/g tissue
same,%ID/g tissue Muscle,24 h p.i.,0.99 ± 0.28 %ID/g tissue
same,%ID/g tissue Muscle,48 h p.i.,0.66 ± 0.16 %ID/g tissue
same,%ID/g tissue Muscle,72 h p.i.,0.84 ± 0.02 %ID/g tissue
same,%ID/g tissue Pancreas,4 h p.i.,5.14 ± 2.01 %ID/g tissue
same,%ID/g tissue Pancreas,24 h p.i.,2.81 ± 0.68 %ID/g tissue
same,%ID/g tissue Pancreas,48 h p.i.,3.18 ± 0.85 %ID/g tissue
same,%ID/g tissue Pancreas,72 h p.i.,2.19 ± 0.01 %ID/g tissue
same,%ID/g tissue Serum,4 h p.i.,24.85 ± 0.85 %ID/g tissue
same,%ID/g tissue Serum,24 h p.i.,9.26 ± 1.03 %ID/g tissue
same,%ID/g tissue Serum,48 h p.i.,6.29 ± 1.02 %ID/g tissue
same,%ID/g tissue Serum,72 h p.i.,1.41 ± 1.56 %ID/g tissue
same,%ID/g tissue Small intestine,4 h p.i.,6.38 ± 3.36 %ID/g tissue
same,%ID/g tissue Small intestine,24 h p.i.,3.78 ± 0.51 %ID/g tissue
same,%ID/g tissue Small intestine,48 h p.i.,3.28 ± 2.02 %ID/g tissue
same,%ID/g tissue Spleen,4 h p.i.,4.23 ± 0.68 %ID/g tissue
same,%ID/g tissue Spleen,24 h p.i.,4.02 ± 0.71 %ID/g tissue
same,%ID/g tissue Spleen,48 h p.i.,4.59 ± 1.57 %ID/g tissue
same,%ID/g tissue Spleen,72 h p.i.,3.92 ± 1.93 %ID/g tissue
same,%ID/g tissue Stomach,4 h p.i.,2.57 ± 0.29 %ID/g tissue
same,%ID/g tissue Stomach,24 h p.i.,2.13 ± 0.17 %ID/g tissue
same,%ID/g tissue Stomach,48 h p.i.,1.76 ± 0.77 %ID/g tissue
same,%ID/g tissue Stomach,72 h p.i.,1.40 ± 0.01 %ID/g tissue
same,%ID/g tissue Tumor,4 h p.i.,4.43 ± 1.20 %ID/g tissue
same,%ID/g tissue Tumor,24 h p.i.,8.34 ± 1.36 %ID/g tissue
same,%ID/g tissue Tumor,48 h p.i.,7.64 ± 1.78 %ID/g tissue
same,%ID/g tissue Tumor,72 h p.i.,5.32 ± 1.22 %ID/g tissue
